Tests used:
Experiment in all cases: Further analysis of a plurality of inhibitors and a plurality of kinases on microarray (Example IX, Table 5);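 further: inhibition of each kinase by the inhibitors is given as a qualitative level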;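 on Inhibition level, DAPK2: level 0 no or unclear inhibition to Level 2 substantial inhibition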;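 on Inhibition level, DYRK1A: level 0 none or unclear Level 1 marginal Level 2 substantial inhibition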;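 on Inhibition level, FGFR2: level 0 none or unclear then 1 little or marginal then 2 substantial inhibition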;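 on Inhibition level, Homo sapiens in: level 0 none or unclear Level 1 marginal Level 2 substantial inhibition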;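 on Inhibition level, Homo sapiens, o: level 0 none or unclear Level 1 marginal Level 2 substantial inhibition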;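 on Inhibition level, ITK: level 0 none or unclear then 1 little or marginal then 2 substantial inhibition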;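 on Inhibition level, MAP3K7: level 0 none or unclear then 1 little or marginal then 2 substantial inhibition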;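 on Inhibition level, PTK2B: level 0 no or unclear inhibition to Level 2 substantial inhibition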;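 on Inhibition level, TLK2: level 0 none or unclear Level 1 marginal Level 2 substantial inhibition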
Format in all cases: biochemical
[1] = molecular target: T1, plurality of kinases (Table 5) (Homo sapiens, UniProt Q08881); details: plate E4; inhibitor 100 uM
T1 sequence (Q08881 1-620): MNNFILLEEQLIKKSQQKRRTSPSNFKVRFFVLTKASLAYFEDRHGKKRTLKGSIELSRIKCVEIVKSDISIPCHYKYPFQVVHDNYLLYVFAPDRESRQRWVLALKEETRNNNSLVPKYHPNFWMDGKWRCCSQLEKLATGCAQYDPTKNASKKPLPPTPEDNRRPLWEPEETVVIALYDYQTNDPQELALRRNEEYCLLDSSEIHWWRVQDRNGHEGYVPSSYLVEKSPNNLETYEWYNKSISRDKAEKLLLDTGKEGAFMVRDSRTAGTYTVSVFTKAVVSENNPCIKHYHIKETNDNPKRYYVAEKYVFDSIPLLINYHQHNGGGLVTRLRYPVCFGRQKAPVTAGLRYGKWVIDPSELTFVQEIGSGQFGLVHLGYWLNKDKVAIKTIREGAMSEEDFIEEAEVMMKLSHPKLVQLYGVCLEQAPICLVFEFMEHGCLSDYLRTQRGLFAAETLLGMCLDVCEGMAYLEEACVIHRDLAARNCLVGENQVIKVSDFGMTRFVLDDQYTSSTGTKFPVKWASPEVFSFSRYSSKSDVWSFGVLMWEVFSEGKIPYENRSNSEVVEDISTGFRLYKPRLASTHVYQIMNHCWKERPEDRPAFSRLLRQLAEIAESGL

[2] = molecular target: T2, plurality of kinases (Table 5) (Homo sapiens, UniProt O43318); details: plate G9
T2 sequence (O43318 1-606): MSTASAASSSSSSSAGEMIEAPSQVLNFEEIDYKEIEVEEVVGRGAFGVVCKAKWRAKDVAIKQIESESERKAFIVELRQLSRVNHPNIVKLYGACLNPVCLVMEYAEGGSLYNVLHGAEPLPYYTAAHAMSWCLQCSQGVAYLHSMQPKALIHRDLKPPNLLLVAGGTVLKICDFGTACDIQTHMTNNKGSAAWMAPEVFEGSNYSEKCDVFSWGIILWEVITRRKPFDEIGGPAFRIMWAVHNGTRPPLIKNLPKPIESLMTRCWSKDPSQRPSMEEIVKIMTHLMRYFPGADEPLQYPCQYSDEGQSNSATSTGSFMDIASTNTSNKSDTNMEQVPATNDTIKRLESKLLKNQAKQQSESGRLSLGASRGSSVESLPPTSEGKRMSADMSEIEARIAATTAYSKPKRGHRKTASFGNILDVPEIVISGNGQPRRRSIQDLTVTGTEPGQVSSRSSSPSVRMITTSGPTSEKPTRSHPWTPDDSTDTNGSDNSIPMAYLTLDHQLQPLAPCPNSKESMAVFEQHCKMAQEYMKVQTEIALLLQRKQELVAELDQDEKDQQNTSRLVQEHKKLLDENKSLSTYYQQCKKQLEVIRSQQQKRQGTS

[3] = molecular target: plurality of kinases (Table 5) (Homo sapiens, UniProt Q9UIK4); details: plate H3
plurality of kinases (Table 5) (Homo sapiens, UniProt Q9UIK4), sequence (Q9UIK4 whole entry): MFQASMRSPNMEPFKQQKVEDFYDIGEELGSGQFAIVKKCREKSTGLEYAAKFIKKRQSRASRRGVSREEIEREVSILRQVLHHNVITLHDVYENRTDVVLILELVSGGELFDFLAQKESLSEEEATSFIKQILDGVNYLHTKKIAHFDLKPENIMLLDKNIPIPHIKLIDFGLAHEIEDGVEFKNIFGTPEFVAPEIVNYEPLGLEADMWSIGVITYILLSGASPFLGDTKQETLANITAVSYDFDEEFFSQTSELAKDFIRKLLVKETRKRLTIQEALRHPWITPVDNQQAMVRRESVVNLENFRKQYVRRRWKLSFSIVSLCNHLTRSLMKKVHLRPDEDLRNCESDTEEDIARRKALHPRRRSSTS

[4] = molecular target: plurality of kinases (Table 5) (Homo sapiens, UniProt O75716); details: plate C3
plurality of kinases (Table 5) (Homo sapiens, UniProt O75716), sequence (O75716 whole entry): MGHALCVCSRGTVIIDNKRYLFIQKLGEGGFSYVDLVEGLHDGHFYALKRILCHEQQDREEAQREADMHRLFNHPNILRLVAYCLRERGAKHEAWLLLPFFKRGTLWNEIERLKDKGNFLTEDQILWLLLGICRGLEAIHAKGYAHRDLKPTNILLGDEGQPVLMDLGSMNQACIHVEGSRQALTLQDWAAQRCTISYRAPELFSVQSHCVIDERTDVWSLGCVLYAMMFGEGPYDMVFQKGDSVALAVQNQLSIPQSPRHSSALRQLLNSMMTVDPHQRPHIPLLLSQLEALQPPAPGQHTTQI

[5] = system: plurality of kinases (Table 5); details: for Inhibition level, Homo sapiens c: plate F4; for Inhibition level, Homo sapiens, o: plate F5; for Inhibition level, Homo sapiens, B: plate F7; for Inhibition level, Homo sapiens in: plate F9; for Inhibition level, Homo sapiens p: plate F10
[6] = molecular target: plurality of kinases (Table 5) (Homo sapiens, UniProt Q7KZI7); details: plate C4; inhibitor 100 uM
plurality of kinases (Table 5) (Homo sapiens, UniProt Q7KZI7), sequence (Q7KZI7 whole entry): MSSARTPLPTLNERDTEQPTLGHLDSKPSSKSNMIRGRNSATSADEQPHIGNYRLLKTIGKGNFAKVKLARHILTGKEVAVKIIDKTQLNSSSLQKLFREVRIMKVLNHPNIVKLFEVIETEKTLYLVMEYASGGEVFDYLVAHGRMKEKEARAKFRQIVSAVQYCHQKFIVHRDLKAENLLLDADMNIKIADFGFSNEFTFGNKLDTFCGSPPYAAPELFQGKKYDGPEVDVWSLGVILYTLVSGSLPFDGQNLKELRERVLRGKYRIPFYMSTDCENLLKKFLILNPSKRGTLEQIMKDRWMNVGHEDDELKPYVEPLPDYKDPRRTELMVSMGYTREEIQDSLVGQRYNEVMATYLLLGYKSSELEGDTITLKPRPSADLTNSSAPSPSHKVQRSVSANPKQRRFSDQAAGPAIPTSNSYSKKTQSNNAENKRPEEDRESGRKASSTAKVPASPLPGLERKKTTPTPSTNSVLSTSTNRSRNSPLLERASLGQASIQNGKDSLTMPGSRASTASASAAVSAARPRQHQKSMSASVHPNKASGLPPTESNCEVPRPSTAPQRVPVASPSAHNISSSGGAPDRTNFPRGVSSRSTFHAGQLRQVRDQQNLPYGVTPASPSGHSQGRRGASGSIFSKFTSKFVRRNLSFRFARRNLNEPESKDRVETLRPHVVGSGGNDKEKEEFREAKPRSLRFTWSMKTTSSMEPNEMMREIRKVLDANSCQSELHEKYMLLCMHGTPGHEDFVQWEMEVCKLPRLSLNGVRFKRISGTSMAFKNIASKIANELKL

[7] = molecular target: plurality of kinases (Table 5) (Homo sapiens, UniProt P21802)
plurality of kinases (Table 5) (Homo sapiens, UniProt P21802), sequence (P21802 22-821): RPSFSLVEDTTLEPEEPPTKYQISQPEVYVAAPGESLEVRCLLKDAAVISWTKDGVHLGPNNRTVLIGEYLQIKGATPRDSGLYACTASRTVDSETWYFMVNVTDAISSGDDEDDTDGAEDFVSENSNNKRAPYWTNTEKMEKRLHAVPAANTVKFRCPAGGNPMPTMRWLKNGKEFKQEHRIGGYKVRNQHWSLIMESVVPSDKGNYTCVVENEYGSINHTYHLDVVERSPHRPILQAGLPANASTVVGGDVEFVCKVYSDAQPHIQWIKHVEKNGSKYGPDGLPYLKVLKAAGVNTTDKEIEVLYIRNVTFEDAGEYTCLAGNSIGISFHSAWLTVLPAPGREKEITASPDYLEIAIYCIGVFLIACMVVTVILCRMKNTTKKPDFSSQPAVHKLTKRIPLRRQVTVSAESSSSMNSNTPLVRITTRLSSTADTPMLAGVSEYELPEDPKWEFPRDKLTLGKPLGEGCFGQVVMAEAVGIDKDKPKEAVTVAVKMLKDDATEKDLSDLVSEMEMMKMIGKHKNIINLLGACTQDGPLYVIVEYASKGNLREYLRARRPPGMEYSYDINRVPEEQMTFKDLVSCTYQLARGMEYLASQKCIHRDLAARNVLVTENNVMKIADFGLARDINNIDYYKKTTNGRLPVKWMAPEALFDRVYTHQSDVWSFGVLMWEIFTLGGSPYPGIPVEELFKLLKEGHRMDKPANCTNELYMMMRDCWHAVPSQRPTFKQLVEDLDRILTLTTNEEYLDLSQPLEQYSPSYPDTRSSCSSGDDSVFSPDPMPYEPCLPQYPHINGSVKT

[8] = molecular target: plurality of kinases (Table 5) (Homo sapiens, UniProt Q13627); details: plate G6
[9] = molecular target: T3, plurality of kinases (Table 5) (Homo sapiens, UniProt Q99759); details: plate A1
T3 sequence (Q99759 1-626): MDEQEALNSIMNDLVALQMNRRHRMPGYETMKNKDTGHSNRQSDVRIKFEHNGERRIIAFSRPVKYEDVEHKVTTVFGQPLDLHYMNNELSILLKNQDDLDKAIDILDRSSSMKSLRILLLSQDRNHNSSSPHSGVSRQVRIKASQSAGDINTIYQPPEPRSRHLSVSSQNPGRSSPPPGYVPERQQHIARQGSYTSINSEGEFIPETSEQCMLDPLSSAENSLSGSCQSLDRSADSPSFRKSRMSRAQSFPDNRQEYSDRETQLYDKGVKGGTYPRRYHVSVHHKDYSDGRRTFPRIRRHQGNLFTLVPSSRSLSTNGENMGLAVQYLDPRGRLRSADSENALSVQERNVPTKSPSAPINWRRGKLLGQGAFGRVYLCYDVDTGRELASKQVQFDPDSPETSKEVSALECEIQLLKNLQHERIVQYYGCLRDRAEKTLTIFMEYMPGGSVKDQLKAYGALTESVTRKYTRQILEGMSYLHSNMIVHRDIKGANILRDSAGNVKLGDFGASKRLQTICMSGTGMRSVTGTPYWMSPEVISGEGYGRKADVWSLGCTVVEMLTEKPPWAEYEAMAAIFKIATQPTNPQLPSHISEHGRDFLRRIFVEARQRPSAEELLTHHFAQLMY

[10] = molecular target: plurality of kinases (Table 5) (Homo sapiens, UniProt P07949); details: plate B7
[11] = molecular target: plurality of kinases (Table 5) (Homo sapiens, UniProt Q14289); details: plate G5; inhibitor 100 uM
plurality of kinases (Table 5) (Homo sapiens, UniProt Q14289), sequence (Q14289 whole entry): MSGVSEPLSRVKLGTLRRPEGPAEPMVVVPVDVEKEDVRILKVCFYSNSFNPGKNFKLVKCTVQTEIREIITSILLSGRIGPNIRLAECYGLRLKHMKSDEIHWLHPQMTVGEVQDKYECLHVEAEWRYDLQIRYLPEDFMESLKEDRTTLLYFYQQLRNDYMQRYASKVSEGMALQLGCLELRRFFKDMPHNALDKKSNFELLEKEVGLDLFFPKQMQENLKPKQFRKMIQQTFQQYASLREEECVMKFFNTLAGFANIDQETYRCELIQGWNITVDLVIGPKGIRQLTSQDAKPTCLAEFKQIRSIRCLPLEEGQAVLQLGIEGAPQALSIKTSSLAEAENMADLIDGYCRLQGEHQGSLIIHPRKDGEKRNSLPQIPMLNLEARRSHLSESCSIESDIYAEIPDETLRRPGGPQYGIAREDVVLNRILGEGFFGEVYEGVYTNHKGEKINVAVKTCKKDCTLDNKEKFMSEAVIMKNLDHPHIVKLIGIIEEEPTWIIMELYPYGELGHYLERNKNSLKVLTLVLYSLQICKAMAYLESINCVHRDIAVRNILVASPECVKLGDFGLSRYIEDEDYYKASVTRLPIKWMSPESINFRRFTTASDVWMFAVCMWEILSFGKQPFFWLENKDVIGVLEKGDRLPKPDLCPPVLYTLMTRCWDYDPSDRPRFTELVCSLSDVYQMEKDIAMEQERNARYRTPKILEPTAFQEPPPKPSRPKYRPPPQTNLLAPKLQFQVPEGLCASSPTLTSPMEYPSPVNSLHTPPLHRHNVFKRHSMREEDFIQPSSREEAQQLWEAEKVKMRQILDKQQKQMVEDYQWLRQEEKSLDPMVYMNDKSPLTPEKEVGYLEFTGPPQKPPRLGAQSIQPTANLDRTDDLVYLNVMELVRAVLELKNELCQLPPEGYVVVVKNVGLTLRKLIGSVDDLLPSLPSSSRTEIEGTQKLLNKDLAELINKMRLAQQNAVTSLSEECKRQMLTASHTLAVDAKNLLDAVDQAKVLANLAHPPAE

[12] = molecular target: plurality of kinases (Table 5) (Homo sapiens, UniProt P00519); details: plate B6
plurality of kinases (Table 5) (Homo sapiens, UniProt P00519), sequence (P00519 whole entry): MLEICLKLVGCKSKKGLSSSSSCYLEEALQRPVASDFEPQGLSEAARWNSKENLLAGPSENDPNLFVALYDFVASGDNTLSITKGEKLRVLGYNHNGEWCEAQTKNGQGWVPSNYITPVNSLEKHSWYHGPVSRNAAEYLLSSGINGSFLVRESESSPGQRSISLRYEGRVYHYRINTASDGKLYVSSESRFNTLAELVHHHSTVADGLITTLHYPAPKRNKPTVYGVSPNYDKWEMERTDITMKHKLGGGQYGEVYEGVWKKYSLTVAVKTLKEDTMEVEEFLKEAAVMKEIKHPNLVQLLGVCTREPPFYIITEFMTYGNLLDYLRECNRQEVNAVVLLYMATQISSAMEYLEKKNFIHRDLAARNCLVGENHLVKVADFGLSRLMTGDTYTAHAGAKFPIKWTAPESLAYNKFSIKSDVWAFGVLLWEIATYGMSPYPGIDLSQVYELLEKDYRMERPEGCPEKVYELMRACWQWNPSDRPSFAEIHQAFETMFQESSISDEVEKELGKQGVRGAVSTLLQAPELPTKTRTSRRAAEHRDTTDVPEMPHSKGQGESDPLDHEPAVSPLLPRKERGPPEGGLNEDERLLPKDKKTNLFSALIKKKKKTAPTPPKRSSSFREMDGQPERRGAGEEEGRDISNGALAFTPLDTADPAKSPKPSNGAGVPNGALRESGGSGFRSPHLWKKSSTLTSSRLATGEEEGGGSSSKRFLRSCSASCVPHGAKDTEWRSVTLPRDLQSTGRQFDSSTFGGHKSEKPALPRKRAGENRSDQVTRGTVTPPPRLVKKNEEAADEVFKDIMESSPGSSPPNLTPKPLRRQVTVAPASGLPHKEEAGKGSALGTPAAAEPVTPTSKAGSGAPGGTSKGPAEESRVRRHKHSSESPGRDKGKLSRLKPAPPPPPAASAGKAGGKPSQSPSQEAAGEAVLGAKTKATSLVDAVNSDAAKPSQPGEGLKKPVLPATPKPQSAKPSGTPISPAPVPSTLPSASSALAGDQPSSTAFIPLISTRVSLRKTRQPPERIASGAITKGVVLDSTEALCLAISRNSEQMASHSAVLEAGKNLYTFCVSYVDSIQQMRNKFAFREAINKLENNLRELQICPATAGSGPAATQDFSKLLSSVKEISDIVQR

[13] = molecular target: plurality of kinases (Table 5) (Homo sapiens, UniProt Q86UE8); details: plate C8

Structure (SMILES)	Inhibition level, ITK [1]	Inhibition level, MAP3K7 ([2]; inhibitor 100 uM)	Inhibition level, DAPK2 ([3]; inhibitor 100 uM)	Inhibition level, STK16 ([4]; inhibitor 100 uM)	Inhibition level, Homo sapiens, S ([5]; plate E9, inhibitor 100 uM)	Inhibition level, Homo sapiens, s ([5]; plate E11, inhibitor 100 uM)	Inhibition level, Homo sapiens, s ([5]; plate F3, inhibitor 100 uM)	Inhibition level, Homo sapiens c ([5]; inhibitor 100 uM)	Inhibition level, Homo sapiens, o ([5]; inhibitor 100 uM)	Inhibition level, Homo sapiens, S ([5]; plate F6, inhibitor 100 uM)	Inhibition level, Homo sapiens, B ([5]; inhibitor 100 uM)	Inhibition level, Homo sapiens, s ([5]; plate F8, inhibitor 100 uM)	Inhibition level, Homo sapiens in ([5]; inhibitor 100 uM)	Inhibition level, Homo sapiens p ([5]; inhibitor 100 uM)	Inhibition level, MARK2 [6]	Inhibition level, FGFR2 ([7]; plate B4, inhibitor 100 uM)	Inhibition level, FGFR2 ([7]; plate G8, inhibitor 100 uM)	Inhibition level, DYRK1A ([8]; inhibitor 100 uM)	Inhibition level, MAP3K3 ([9]; inhibitor 100 uM)	Inhibition level, RET ([10]; inhibitor 100 uM)	further results
COc1cc2ncnc(Nc3cccc(Cl)c3)c2cc1OC [AG 1478]	1	0	0	0	0	2	2	2	2	1	2	0	2	2	2	2	2	0	2	2	Inhibition level, PTK2B [11]: 2; Inhibition level, ABL1 ([12]; inhibitor 100 uM): 1; Inhibition level, TLK2 ([13]; inhibitor 100 uM): 2
N#C/C(=C/c1ccc(O)c(O)c1)C(=O)NCc1ccccc1 [AG 490]	1	0	2	0	0	2	0	2	2	0	2	0	1	2	2	2	2	2	2	2	Inhibition level, PTK2B [11]: 2; Inhibition level, ABL1 ([12]; inhibitor 100 uM): 0; Inhibition level, TLK2 ([13]; inhibitor 100 uM): 2
O=c1c(-c2ccc(O)cc2)coc2cc(O)cc(O)c12 [Genistein]	2	1	2	0	2	2	1	2	2	0	2	0	1	2	2	2	2	2	2	2	Inhibition level, MAP3K7 ([2]; Genistein <3.7 mM): 0; Inhibition level, DAPK2 ([3]; Genistein, conc. not given): 0; Inhibition level, STK16 ([4]; Genistein <3.7 mM): 0; Inhibition level, Homo sapiens, s ([5]; plate F3, Genistein, conc. not given): 0; Inhibition level, Homo sapiens, o ([5]; Genistein, conc. not given): 0; Inhibition level, Homo sapiens, S ([5]; plate F6, Genistein, conc. not given): 0; Inhibition level, Homo sapiens, B ([5]; Genistein, conc. not given): 0; Inhibition level, Homo sapiens, s ([5]; plate F8, Genistein, conc. not given): 0; Inhibition level, Homo sapiens in ([5]; Genistein, conc. not given): 0; Inhibition level, Homo sapiens p ([5]; Genistein, conc. not given): 2; Inhibition level, FGFR2 ([7]; plate B4, Genistein, conc. not given): 1; Inhibition level, FGFR2 ([7]; plate G8, Genistein <3.7 mM): 0; Inhibition level, DYRK1A ([8]; Genistein <3.7 mM): 1; Inhibition level, MAP3K3 ([9]; Genistein <3.7 mM): 2; Inhibition level, RET ([10]; Genistein, conc. not given): 0; Inhibition level, PTK2B [11]: 2; Inhibition level, ABL1 ([12]; Genistein, conc. not given): 0; Inhibition level, ABL1 ([12]; inhibitor 100 uM): 0; Inhibition level, TLK2 ([13]; Genistein <3.7 mM): 0; Inhibition level, TLK2 ([13]; inhibitor 100 uM): 2
